Data taken from article PMC6952396, “Structural basis for itraconazole-mediated NPC1 inhibition” (Nature Communications, 2020).

Columns and labels:
NPC1 = target: T1, NPC1 (Cricetulus griseus, UniProt Q9JLG3); conditions: cited from earlier work; for inhibition of P-X cross-linking to NPC1: cultured cells
T1 construct: CHO-7 cells in the medium are deprived of cholesterol to induce the LDL receptors biosynthesis; endogenous in cells; host or cells: CHO-7 cells
T1 sequence (Q9JLG3 23-1277): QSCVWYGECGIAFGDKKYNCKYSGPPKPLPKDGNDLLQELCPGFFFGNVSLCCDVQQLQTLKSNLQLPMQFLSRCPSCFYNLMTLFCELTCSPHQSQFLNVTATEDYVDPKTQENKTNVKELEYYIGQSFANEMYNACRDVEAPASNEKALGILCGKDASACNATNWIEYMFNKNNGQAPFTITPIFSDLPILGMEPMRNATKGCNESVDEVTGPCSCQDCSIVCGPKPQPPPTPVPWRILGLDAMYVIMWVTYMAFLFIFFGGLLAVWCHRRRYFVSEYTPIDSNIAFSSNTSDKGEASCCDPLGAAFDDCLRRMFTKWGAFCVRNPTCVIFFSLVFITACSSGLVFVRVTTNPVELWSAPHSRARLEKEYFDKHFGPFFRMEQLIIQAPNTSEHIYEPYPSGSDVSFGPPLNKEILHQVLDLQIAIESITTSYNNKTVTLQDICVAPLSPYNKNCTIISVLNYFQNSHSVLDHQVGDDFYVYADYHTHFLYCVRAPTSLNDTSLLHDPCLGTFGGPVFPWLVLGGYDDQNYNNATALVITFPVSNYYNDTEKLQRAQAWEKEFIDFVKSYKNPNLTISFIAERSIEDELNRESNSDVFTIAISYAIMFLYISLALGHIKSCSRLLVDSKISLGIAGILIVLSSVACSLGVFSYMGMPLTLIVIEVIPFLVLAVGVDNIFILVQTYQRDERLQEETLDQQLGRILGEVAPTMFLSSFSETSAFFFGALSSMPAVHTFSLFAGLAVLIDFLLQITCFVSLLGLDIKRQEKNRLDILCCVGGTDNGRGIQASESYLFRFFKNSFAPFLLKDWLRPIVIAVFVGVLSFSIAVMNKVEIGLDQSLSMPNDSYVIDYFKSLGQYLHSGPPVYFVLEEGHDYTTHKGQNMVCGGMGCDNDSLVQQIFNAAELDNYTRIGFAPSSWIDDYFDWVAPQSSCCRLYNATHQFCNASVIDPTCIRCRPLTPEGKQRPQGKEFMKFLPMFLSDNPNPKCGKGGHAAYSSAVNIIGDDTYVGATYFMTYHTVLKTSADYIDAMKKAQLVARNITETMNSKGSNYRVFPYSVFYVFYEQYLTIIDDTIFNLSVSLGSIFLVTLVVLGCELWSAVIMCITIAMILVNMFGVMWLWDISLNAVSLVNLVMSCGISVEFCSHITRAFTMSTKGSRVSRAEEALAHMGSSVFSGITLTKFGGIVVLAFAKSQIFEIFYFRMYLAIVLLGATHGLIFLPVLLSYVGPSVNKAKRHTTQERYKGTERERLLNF

wild-type human NPC1 = test system: T2, wild-type human NPC1; test: Cross-linking of P-X to NPC1 in intact HEK-293S GnTI- cells overexpressing NPC1; assay type: cell-based; conditions: for inhibition of P-X cross-linking to WT NPC1 in intact cells: 0.3 μM P-X and 3 μM competitor, 1 h at 37 °C
T2 construct: expressed in transfected cells; host or cells: HEK-293S GnTI- cells (ATCC, CRL-3022), PEI transfection
Description: pNPC1 encoding wild-type human NPC1 (amino acids 1–1278) followed sequentially by three tandem copies of the Flag epitope tag ([…]) was constructed into pcDNA3.1. Expression is achieved with the cytomegalovirus (CMV) promoter. Point mutations were introduced into the coding region of pNPC1 by site-directed mutagenesis using the QuikChange II XL Site-Directed Mutagenesis Kit (Agilent Technologies, Santa Clara, CA) and primers which are indicated in Supplementary Table 2. The coding region of each plasmid was sequenced to ensure integrity of the construct.
For cross-linking of P-X to NPC1 and mutants in intact cells, the mammalian HEK-293S GnTI^- cells (ATCC, CRL-3022) overexpressing NPC1 and mutants were set up in 500 mL of freestyle medium with 2% FCS at a density of 2 × 10^6 cells per ml. The cells were transfected with 0.5 mg of the indicated plasmid using PEI (Polysciences) as the transfection agent. After 48 h, cell culture was aliquoted to 10 cm dishes. Each dish received a direct addition of DMSO (final concentration, 0.2%) containing 0.3 μM P-X and 3 μM of various competitor compounds as described in the figure legends. After incubation for 1 h at 37 °C in the dark and without a change of media, the cells were irradiated for 10 min at room temperature under 306-nm UV light (Atlanta Light Bulb Co.) in a UV Stratalinker 2400 apparatus (Stratagene). Cells were subjected to centrifugation at 4000 g for 5 min. The pellet was washed once with PBS and then solubilized with 1 mL of buffer containing 50 mM Hepes pH 7.5, 150 mM NaCl, 1%(wt/vol) n-Dodecyl-β-D-maltopyranoside (DDM, Anatrace). Each solubilized lysate was incubated at room temperature for 1 h, and clarified by centrifugation at 15000 g for 1 min. The supernatant was then transferred to a fresh tube and incubated with anti-FLAG M2 magnetic beads for 1 h. After which the beads were applied to a magnet, washed three times with 1 mL of wash buffer containing 50 mM Hepes pH 7.5, 150 mM NaCl, 0.02% (wt/vol) DDM, and eluted with 100 μL of wash buffer containing 15 μg of 3x FLAG peptide. The purified protein was then tagged with Alexa Fluor 532 using click chemistry as described above. An aliquot of each sample was subjected to 8% SDS/PAGE, and fluorescent-labeled proteins were visualized by in-gel fluorescence as described above. After scanning the gel, the proteins were transferred to nitrocellulose and blotted with mouse monoclonal anti-Flag.

[1] = test system: NPC1-mediated cholesterol export; conditions: cited from earlier work
human NPC1 = test system: T3, human NPC1; conditions: NPC1 reconstituted in lipid nanodiscs; cited from earlier work
T3 construct: Strep-tag; made in house; host or cells: HEK-293S GnTI- cells (baculovirus-mediated transduction)

[2] = test system: NPC1 mutants (W381E, L613E, Y628S, I685S, and Y1225E); test: Cross-linking of P-X to NPC1 binding-site mutants in intact HEK293S cells; assay type: cell-based, human; conditions: 0.3 μM P-X
Description: The I-Br binds to a hydrophobic cavity that is generated by the SSD, the MLD and the CTD in the center of NPC1 (Fig. 3d). Residues in the N-terminal loop and C-terminal helices of the MLD and the CTD, as well as TMs 3, 4, 5, and 13 contribute to the cavity that accommodates I-Br (Figs. 3d, 4a, b). The terminal sec-butyl moiety of I-Br inserts into the cavity and is contacted by residues W381, I609, L613, I685, F1087, I1220, and Y1225 (Fig. 4a, b). […] To validate our structural observation, we have generated five NPC1 mutants (W381E, L613E, Y628S, I685S, and Y1225E) located in the binding site and individually transfected the mutant cDNAs into HEK293S cells.
pNPC1 encoding wild-type human NPC1 (amino acids 1–1278) followed sequentially by three tandem copies of the Flag epitope tag ([…]) was constructed into pcDNA3.1. Expression is achieved with the cytomegalovirus (CMV) promoter. […]
For cross-linking of P-X to NPC1 and mutants in intact cells, the mammalian HEK-293S GnTI^- cells (ATCC, CRL-3022) overexpressing NPC1 and mutants were set up in 500 mL of freestyle medium with 2% FCS at a density of 2 × 10^6 cells per ml. […] An aliquot of each sample was subjected to 8% SDS/PAGE, and fluorescent-labeled proteins were visualized by in-gel fluorescence as described above. […]

Row | Structure (SMILES) | inhibition of P-X cross-linking to NPC1 (NPC1) | inhibition of P-X cross-linking to WT NPC1 in intact cells (wild-type human NPC1) | inhibition of cholesterol export from lysosomes [1] | inhibition of P-X cross-linking to WT NPC1 in intact cells (wild-type human NPC1; listed as ketoconazole) | cross-linking of P-X to NPC1 in cultured cells (NPC1; added at nanomolar concentration) | cross-linking of P-X to WT NPC1 in intact cells (wild-type human NPC1; 0.3 μM P-X) | cross-linking of P-X to purified NPC1 (human NPC1) | cross-linking of P-X to NPC1 mutants in cells [2]
1 | CCC(C)n1ncn(-c2ccc(N3CCN(c4ccc(OCC5COC(Cn6cncn6)(c6ccc(Cl)cc6Cl)O5)cc4)CC3)cc2)c1=O (stereo not shown) [Itraconazole mixture, itraconazole] | inhibited | inhibits this reaction | inhibit cholesterol export from lysosomes | – | – | – | – | –
2 | CC(=O)N1CCN(c2ccc(OCC3COC(Cn4ccnc4)(c4ccc(Cl)cc4Cl)O3)cc2)CC1 (stereo not shown) [Ketoconazole, ketoconazole] | did not block | could not inhibit | – | does not | – | – | – | –
3 | C#CCOc1ccc(C(=O)c2ccc(C(=O)OC(C)C(CC)n3ncn(-c4ccc(N5CCN(c6ccc(OCC7COC(Cn8cncn8)(c8ccc(F)cc8F)O7)cc6)CC5)cc4)c3=O)cc2)cc1 (stereo not shown) [P-X] | – | – | – | – | can be cross-linked | can easily cross-link | cross-linked | not efficiently cross-linked
